Results from patent US20230265104A1, “NOVEL HETEROCYCLIC COMPOUNDS” (PRISM BIOLAB CO., LTD., priority 2020, published 2023).

System: PANC-1 (human pancreatic cancer-derived cell line)
Test: MTS assay on Panc-1 (human pancreas carcinoma cell line)
Assay type: cell-based
Conditions: 144 h; for inhibition at 0.3125 µM: read-out: Growth inhibition (%) 0.3125 μM; for IC50: PANC-1, MTS method, cell survival 6 days after exposure, 4-parameter logistic fit; for inhibition at 10 µM: read-out: Growth inhibition (%) 10 μM; for inhibition at 30 µM: read-out: Growth inhibition (%) 30 μM
Procedure: Experimental Example: MTS Assay on Panc-1 (Human Pancreas Carcinoma Cell Line) cell line name: PANC-1 derived from: human pancreas glandular cancer purchased from: ATCC product code: CRL-1469 proliferation medium: D-MEM+10% FBS culture environment: 37° C., 5% CO2 seeding density: 5.0×10^5 cells/25 cm^2 solvent control substance: DMSO (HYBRI-MAX®, Sigma-Aldrich Corp.) test substance: Example compound (ID-1-ID-13) A DMSO solution of the test substance was prepared by serially diluting (common ratio 2) each test substance with DMSO.
A solvent control substance sample and a test substance sample were exposed to a human pancreatic cancer-derived cell line (PANC-1), and the survival rate of the cell 6 days later was measured by the MTS method. The measurement was performed 3 times and the average thereof was adopted. The survival rate of the cell in each test substance sample was calculated by the following formula 1 with the value at exposure of the solvent control substance sample as 100% survival rate. […]
survival rate (%)=100×absorbance of each test substance sample/absorbance of solvent control substance sample formula 1 Normalized values calculated by the following formula 2 from the absorbances of each sample at 492 nm and 630 nm and the absorbances of the blank were used as the absorbances in the above-mentioned formula 1. […]
normalized value (ABS492 nm-630 nm)=(ABSsa 492 nm-ABSsa 630 nm)−(ABSbl 492 nm-ABSbl 630 nm) ABSsa 492: absorbance of each sample at wavelength 492 nm ABSsa 630: absorbance of each sample at wavelength 630 nm ABSbl 492: absorbance of blank corresponding to each sample at wavelength 492 nm ABSbl 630: absorbance of blank corresponding to each sample at wavelength 630 nm formula 2 […]
The analysis was performed by using nplr package on R (The R Foundation for Statistical Computing) and estimating the logistic regression curve (4-parameter).

Row | Compound | IC50 [µM] | further results
1 | CC(C)C[C@H]1ON(C(=O)/C=C/c2nc(-c3cccnc3)cs2)[C@H]2CN([C@H]3CCN(CCCCO)C3)C(=O)[C@H](CC(C)(C)C)N2C1=O [ID-82, (3R,6S,9aS)-8-((S)-1-(4-hydroxybutyl)pyrrolidin-3-yl)-3-isobutyl-6-neopentyl-1-((E)-3-(4-(pyridin-3-yl)thiazol-2-yl)acryloyl)tetrahydropyrazino[2,1-c][1,2,4]oxadiazine-4,7 (3H, 6H)-dione] |  | inhibition at 0.3125 µM (PANC-1, MTS, 6 days): 48.6%
2 | CC(C)C[C@H]1ON(C(=O)/C=C/c2nc3cc(O)ccc3s2)[C@H]2CN([C@H]3CCN(CCCCO)C3)C(=O)[C@H](CC(C)(C)C)N2C1=O [ID-7, (3R,6S,9aS)-1-((E)-3-(5-hydroxybenzo[d]thiazol-2-yl)acryloyl)-8-((S)-1-(4-hydroxybutyl)pyrrolidin-3-yl)-3-isobutyl-6-neopentyltetrahydropyrazino[2,1-c][1,2,4]oxadiazine-4,7(3H,6H)-dione] | 0.07 | 
3 | CC(C)C[C@H]1ON(C(=O)/C=C/c2cc3n(n2)CCOC3)[C@H]2CN(C3CCN(C)CC3)C(=O)[C@H](CC(C)C)N2C1=O [ID-49, (3R,6S,9aS)-1-((E)-3-(6,7-dihydro-4H-pyrazolo[5,1-c][1,4]oxazin-2-yl)acryloyl)-3,6-diisobutyl-8-(1-methylpiperidin-4-yl)tetrahydropyrazino[2,1-c][1,2,4]oxadiazine-4,7 (3H, 6H)-dione] |  | inhibition at 10 µM (PANC-1, MTS, 6 days): 74.9%
4 | CC(C)C[C@H]1ON(C(=O)/C=C/c2nn(C)c3ccccc23)[C@H]2CN(CCC(N)=O)C(=O)[C@H](CC(C)C)N2C1=O [ID-22, 3-((3R,6S,9aS)-3,6-diisobutyl-1-((E)-3-(1-methyl-1H-indazol-3-yl)acryloyl)-4,7-dioxohexahydropyrazino[2,1-c][1,2,4]oxadiazin-8(1H)-yl)propanamide] | 15.6 | inhibition at 30 µM (PANC-1, MTS, 6 days): 95.4%
5 | CC(C)C[C@H]1ON(C(=O)/C=C/c2ccccn2)[C@H]2CN(CCC(N)=O)C(=O)[C@H](CC(C)C)N2C1=O [ID-14, 3-((3R,6S,9aS)-3,6-diisobutyl-4,7-dioxo-1-((E)-3-(pyridin-2-yl)acryloyl)hexahydropyrazino[2,1-c][1,2,4]oxadiazin-8 (1H)-yl)propanamide] | 17.8 | 
6 | CC(C)C[C@H]1C(=O)N(C2CCN(C)CC2)C[C@@H]2N(C(=O)/C=C/c3nc4ccccc4s3)c3ccccc3C(=O)N21 [ID-58, (4S,11aS)-11-((E)-3-(benzo[d]thiazol-2-yl)acryloyl)-4-isobutyl-2-(1-methylpiperidin-4-yl)-1,2,11,11a-tetrahydro-6H-pyrazino[2,1-b]quinazoline-3,6(4H)-dione] | 0.56 | inhibition at 1 µM (PANC-1, MTS, 6 days, 1 μM, read-out: Growth inhibition (%) 1 μM): 78.4%
7 | CNCCCN1C[C@H](CC(C)C)N2C(=O)[C@@H](CC(C)C)ON(C(=O)/C=C/c3ccccn3)[C@H]2C1 [ID-19, (3R,6S,9aS)-3,6-diisobutyl-8-(3-(methylamino)propyl)-1-((E)-3-(pyridin-2-yl)acryloyl)hexahydropyrazino[2,1-c][1,2,4]oxadiazin-4(3H)-one] | 10.2 | inhibition at 30 µM (PANC-1, MTS, 6 days): 99.7%
8 | CC(C)C[C@H]1ON(C(=O)/C=C/c2nc3ccccc3s2)[C@H]2CN(C3CCN(CCCN)CC3)C(=O)[C@H](CC(C)(C)C)N2C1=O [ID-75, (3R,6S,9aS)-8-(1-(3-aminopropyl)piperidin-4-yl)-1-((E)-3-(benzo[d]thiazol-2-yl)acryloyl)-3-isobutyl-6-neopentyltetrahydropyrazino[2,1-c][1,2,4]oxadiazine-4,7(3H,6H)-dione] | 0.39 | inhibition at 0.3125 µM (PANC-1, MTS, 6 days): 19.9%
9 | CC(C)C[C@H]1ON(C(=O)/C=C/c2nc3ccccc3s2)[C@H]2CN(C3CCN(C)CC3)C(=O)[C@H](CC(C)C)N2C1=O [ID-2, (3R, 6S, 9aS)-1-((E)-3-(benzo[d]thiazol-2-yl)acryloyl)-3,6-diisobutyl-8-(1-methylpiperidin-4-yl) tetrahydropyrazino[2,1-c] [1,2,4]oxadiazine-4,7(3H,6H)-dione] | 0.27 | 
10 | CC(C)C[C@H]1ON(C(=O)/C=C/c2ccccn2)[C@H]2CN(C3CCNCC3)C(=O)[C@H](CC(C)C)N2C1=O [ID-16, (3R,6S,9aS)-3,6-diisobutyl-8-(piperidin-4-yl)-1-((E)-3-(pyridin-2-yl)acryloyl)tetrahydropyrazino[2,1-c][1,2,4]oxadiazine-4,7(3H,6H)-dione] | 4.7 | inhibition at 30 µM (PANC-1, MTS, 6 days): 100%
11 | CC(C)(C)C[C@H]1C(=O)N([C@@H]2CCN(CCCCO)C2)C[C@@H]2N(C(=O)/C=C/c3nc4ccccc4s3)O[C@H](C[C@H]3C[C@@H]3CCc3ccccc3)C(=O)N21 [ID-104, (3R,6S,9aS)-1-((E)-3-(benzo[d]thiazol-2-yl)acryloyl)-8-((R)-1-(4-hydroxybutyl)pyrrolidin-3-yl)-6-neopentyl-3-(((1R,2S)-2-phenethylcyclopropyl)methyl)tetrahydropyrazino[2,1-c][1,2,4]oxadiazine-4,7(3H,6H)-dione] |  | inhibition at 0.3125 µM (PANC-1, MTS, 6 days): 30.1%
12 | CC(C)C[C@H]1ON(C(=O)/C=C/c2ccc3ccccc3c2)[C@H]2CN(CCC(N)=O)C(=O)[C@H](CC(C)C)N2C1=O [ID-24, 3-((3R,6S,9aS)-3,6-diisobutyl-1-((E)-3-(naphthalen-2-yl)acryloyl)-4,7-dioxohexahydropyrazino[2,1-c] [1,2,4]oxadiazin-8(1H)-yl)propanamide] | 15.8 | inhibition at 30 µM (PANC-1, MTS, 6 days): 102%
13 | CC(C)C[C@H]1ON(C(=O)/C=C/c2ccccn2)[C@H]2CN(C3CCN(C(=O)c4ccccc4)CC3)C(=O)[C@H](CC(C)C)N2C1=O [ID-15, (3R,6S,9aS)-8-(1-benzoylpiperidin-4-yl)-3,6-diisobutyl-1-((E)-3-(pyridin-2-yl)acryloyl)tetrahydropyrazino[2,1-c][1,2,4]oxadiazine-4,7(3H,6H)-dione] | 5.8 | inhibition at 30 µM (PANC-1, MTS, 6 days): 99.9%
14 | CC(C)C[C@H]1ON(C(=O)/C=C/c2ccccn2)[C@H]2CN(C3CCC(N(C)C)CC3)C(=O)[C@H](CC(C)C)N2C1=O (stereo partly drawn) [ID-69, (3R,6S,9aS)-8-(4-(dimethylamino)cyclohexyl)-3,6-diisobutyl-1-((E)-3-(pyridin-2-yl)acryloyl)tetrahydropyrazino[2,1-c][1,2,4]oxadiazine-4,7(3H,6H)-dione] | 2.8 | 
15 | CC(C)C[C@H]1ON(C(=O)/C=C/c2cccc3nccnc23)[C@H]2CN(CCC(N)=O)C(=O)[C@H](CC(C)C)N2C1=O [ID-30, 3-((3R,6S,9aS)-3,6-diisobutyl-4,7-dioxo-1-((E)-3-(quinoxalin-5-yl)acryloyl)hexahydropyrazino[2,1-c][1,2,4]oxadiazin-8 (1H)-yl)propanamide] |  | inhibition at 10 µM (PANC-1, MTS, 6 days): 58.4%
16 | CSCC[C@H]1C(=O)N(C2CCN(C)CC2)C[C@@H]2N(C(=O)/C=C/c3nc4ccccc4s3)O[C@H](CC(C)C)C(=O)N21 [ID-60, (3R,6S,9aS)-1-((E)-3-(benzo[d]thiazol-2-yl)acryloyl)-3-isobutyl-8-(1-methylpiperidin-4-yl)-6-(2-(methylthio)ethyl)tetrahydropyrazino[2,1-c][1,2,4]oxadiazine-4,7(3H,6H)-dione] | 0.27 | inhibition at 10 µM (PANC-1, MTS, 6 days): 93.7%
17 | CC(C)C[C@H]1ON(C(=O)/C=C/c2cccc(=O)[nH]2)[C@H]2CN(C3CCN(C)CC3)C(=O)[C@H](CC(C)C)N2C1=O [ID-51, (3R,6S,9aS)-3,6-diisobutyl-8-(1-methylpiperidin-4-yl)-1-((E)-3-(6-oxo-1,6-dihydropyridin-2-yl)acryloyl)tetrahydropyrazino[2,1-c][1,2,4]oxadiazine-4,7(3H,6H)-dione] |  | inhibition at 10 µM (PANC-1, MTS, 6 days): 47.5%
18 | CC(C)C[C@H]1ON(C(=O)/C=C/c2nc(C#CCCCCCO)cs2)[C@H]2CN([C@@H]3CCN(CCCCO)C3)C(=O)[C@H](CC(C)(C)C)N2C1=O [ID-13, (3R,6S,9aS)-8-((R)-1-(4-hydroxybutyl)pyrrolidin-3-yl)-1-((E)-3-(4-(7-hydroxyhept-1-yn-1-yl)thiazol-2-yl)acryloyl)-3-isobutyl-6-neopentyltetrahydropyrazino[2,1-c][1,2,4]oxadiazine-4,7(3H,6H)-dione] | 0.14 | 
19 | CC(C)C[C@H]1ON(C(=O)/C=C/c2ccccn2)[C@H]2CN(C3CCN(C)CC3)C(=O)[C@H](CCCCNCc3ccccc3)N2C1=O [ID-57, (3R,6S,9aS)-6-(4-(benzylamino)butyl)-3-isobutyl-8-(1-methylpiperidin-4-yl)-1-((E)-3-(pyridin-2-yl)acryloyl)tetrahydropyrazino[2,1-c][1,2,4]oxadiazine-4,7(3H,6H)-dione] | 1 | inhibition at 10 µM (PANC-1, MTS, 6 days): 101%
